Tested on: patients with uncontrolled gout
Assay: Adverse events of special interest: gout flares during the Methotrexate Run-in Period
Type: in vivo, human
Settings: for Number of Gout Flares per Subject among subjects with at least one gout flare, Mean / Number of Gout Flares per Subject among subjects with at least one gout flare, Median / Gout Flares, % of subjects / Subjects with 1 gout flare, % / Subjects with 2 gout flares, %: Methotrexate Run-in Period
Excerpt: As used herein, a “gout flare” refers to a manifestation of physiological or biochemical symptoms of gout, which is a possible side effect or AE associated with treatment with KXX. A gout flare may produce burning itching, tingling, or stiffness in the joints, particularly the peripheral joints. An individual may also experience redness, swelling, and pain in the joints. In accordance with the disclosure, gout flares may initially increase when starting treatment with KXX. For such individuals, medications to help reduce flares may be taken regularly for the first few months after KXX is started. […] In some embodiments, gout flare prophylaxis may include, but is not limited to, In some embodiments, prophylactic treatment may be given prior to an infusion of KXX, for example one week prior to treatment with KXX.
Gout Flare Treatment—An increase in gout flares was frequently observed upon initiation of anti-hyperuricemic therapy, including treatment with pegloticase. Participants were instructed to contact the site within 12 hours of the onset of symptoms. Gout flares were confirmed through questioning or direct observation. All participants who experience a gout flare during the study were prescribed anti-inflammatory treatment (e.g., corticosteroids, NSAIDs, colchicine) as deemed clinically indicated by the study physician.

## CN(Cc1cnc2nc(N)nc(N)c2n1)c1ccc(C(=O)N[C@@H](CCC(=O)O)C(=O)O)cc1 [MTX, methotrexate]
Day 1, ITT
  Maximum Reported Intensity of Flare (0-10 scale), Max: 8
  Maximum Reported Intensity of Flare (0-10 scale), Mean: 5.8
  Maximum Reported Intensity of Flare (0-10 scale), Median: 5.5
  Maximum Reported Intensity of Flare (0-10 scale), Min: 4
Day 1, ITT, 14 assessed
  Any Gout Flares Since the Last Visit, %: (57.1) %
  Pain at rest >3 out of 10, %: (57.1) %
  Pain different than normal, %: (50.0) %
  Swelling in Joints, %: (42.9) %
Day 1, mITT
  Maximum Reported Intensity of Flare (0-10 scale), Max: 8
  Maximum Reported Intensity of Flare (0-10 scale), Mean: 5.8
  Maximum Reported Intensity of Flare (0-10 scale), Median: 5.5
  Maximum Reported Intensity of Flare (0-10 scale), Min: 4
Day 1, mITT, 14 assessed
  Any Gout Flares Since the Last Visit, %: (57.1) %
  Pain at rest >3 out of 10, %: (57.1) %
  Pain different than normal, %: (50.0) %
  Swelling in Joints, %: (42.9) %
ITT
  Number of Gout Flares per Subject among subjects with at least one gout flare, Mean: 1.2
  Number of Gout Flares per Subject among subjects with at least one gout flare, Median: 1.0
ITT N = 15
  Gout Flares, % of subjects: (33.3) %
  Subjects with 1 gout flare, %: (26.7) %
  Subjects with 2 gout flares, %: (6.7) %
mITT
  Number of Gout Flares per Subject among subjects with at least one gout flare, Mean: 1.2
  Number of Gout Flares per Subject among subjects with at least one gout flare, Median: 1.0
mITT N = 14
  Gout Flares, % of subjects: (35.7) %
  Subjects with 1 gout flare, %: (28.6) %
  Subjects with 2 gout flares, %: (7.1) %
Week −4, ITT
  Maximum Reported Intensity of Flare (0-10 scale), Max: 10
  Maximum Reported Intensity of Flare (0-10 scale), Mean: 8.5
  Maximum Reported Intensity of Flare (0-10 scale), Median: 8.0
  Maximum Reported Intensity of Flare (0-10 scale), Min: 7
Week −4, ITT, 14 assessed
  Any Gout Flares Since the Last Visit, %: (57.1) %
  Pain at rest >3 out of 10, %: (50.0) %
  Pain different than normal, %: (42.9) %
  Swelling in Joints, %: (50.0) %
Week −4, mITT
  Maximum Reported Intensity of Flare (0-10 scale), Max: 10
  Maximum Reported Intensity of Flare (0-10 scale), Mean: 8.2
  Maximum Reported Intensity of Flare (0-10 scale), Median: 8.0
  Maximum Reported Intensity of Flare (0-10 scale), Min: 7
Week −4, mITT, 13 assessed
  Any Gout Flares Since the Last Visit, %: (53.8) %
  Pain at rest >3 out of 10, %: (46.2) %
  Pain different than normal, %: (38.5) %
  Swelling in Joints, %: (46.2) %
